According to ChEMBL document CHEMBL1201862, “PubChem BioAssay data set” (2004):
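Assay format: 96-well plates, 48-hour exposure. GI50 = concentration required for 50% inhibition of growth.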 Calls of active or inactive are those of the source. Rule as the data show it: active = GI50 up to about 1.1 µM and inactive = higher.

Columns and labels:
Experiment in all cases: DTP human tumour cell line panel, 48 h
RPMI-8226 = test system: RPMI-8226
TK-10 = test system: TK-10
SF-268 = test system: SF-268
OVCAR-4 = test system: OVCAR-4
SR = test system: SR
SK-MEL-2 = test system: SK-MEL-2
Hs-578T = test system: Hs-578T
UACC-257 = test system: UACC-257
Malme-3M = test system: Malme-3M
ACHN = test system: ACHN
NCI-H226 = test system: NCI-H226
MCF7 = test system: MCF7
A549 = test system: A549
MOLT-4 = test system: MOLT-4
HCC 2998 = test system: HCC 2998
NCI/ADR-RES = test system: NCI/ADR-RES
OVCAR-8 = test system: OVCAR-8
CAKI-1 = test system: CAKI-1
UO-31 = test system: UO-31
NCI-H460 = test system: NCI-H460

SMILES | GI50 (RPMI-8226) | GI50 (TK-10) | GI50 (SF-268) | GI50 (OVCAR-4) | GI50 (SR) | GI50 (SK-MEL-2) | GI50 (Hs-578T) | GI50 (UACC-257) | GI50 (Malme-3M) | GI50 (ACHN) | GI50 (NCI-H226) | GI50 (MCF7) | GI50 (A549) | GI50 (MOLT-4) | GI50 (HCC 2998) | GI50 (NCI/ADR-RES) | GI50 (OVCAR-8) | GI50 (CAKI-1) | GI50 (UO-31) | GI50 (NCI-H460)
CC(=O)NNc1nc(C)c(C(/C=C/c2ccc3c(c2)OCO3)=N/NC(=O)c2ccncc2)s1 | > 100 µM (inactive) | > 100 µM (inactive) | > 100 µM (inactive) | > 100 µM (inactive) | > 100 µM (inactive) | > 100 µM (inactive) | > 100 µM (inactive) | > 100 µM (inactive) | > 100 µM (inactive) | > 100 µM (inactive) | > 100 µM (inactive) | > 100 µM (inactive) | > 100 µM (inactive) | > 100 µM (inactive) | > 100 µM (inactive) | > 100 µM (inactive) | > 100 µM (inactive) | > 100 µM (inactive) | > 100 µM (inactive) | > 100 µM (inactive)
COc1ccc(Br)c(/C=N\c2cccc3cc(OC)c(OC)cc23)c1 | 3.44 µM (inactive) | 28.1 µM (inactive) | 7 µM (inactive) | 40.6 µM (inactive) | 2.42 µM (inactive) | 42.3 µM (inactive) | 5.21 µM (inactive) | 69.8 µM (inactive) | 34 µM (inactive) | 25.5 µM (inactive) | 39 µM (inactive) | 2.33 µM (inactive) | > 91.2 µM (inactive) | 4.81 µM (inactive) | 28.4 µM (inactive) | 16.8 µM (inactive) | 6.28 µM (inactive) | > 82.4 µM (inactive) | 21.5 µM (inactive) | 35.5 µM (inactive)
O=C(NC(=O)c1ccccc1[N+](=O)[O-])Nc1ccc(Oc2ncc(Cl)cn2)c([N+](=O)[O-])c1 | 0.187 µM (active) | > 100 µM (inactive) | 0.327 µM (active) | 21.9 µM (inactive) | 0.0638 µM (active) | 0.127 µM (active) | 0.202 µM (active) | 0.431 µM (active) | 0.061 µM (active) | 0.641 µM (active) | 0.263 µM (active) | 0.12 µM (active) | 0.385 µM (active) | 0.171 µM (active) | 0.426 µM (active) | 0.305 µM (active) | 1.78 µM (inactive) | 0.0456 µM (active) | 0.573 µM (active) | 0.198 µM (active)
O=[N+]([O-])c1ccc(S(=O)(=O)Cc2ccccc2)c([N+](=O)[O-])c1 | 1.4 µM (inactive) | 1.88 µM (inactive) | 3.16 µM (inactive) | 2.2 µM (inactive) | 0.247 µM (active) | 2.82 µM (inactive) | 4.12 µM (inactive) | 1.67 µM (inactive) | 2.91 µM (inactive) | 1.58 µM (inactive) | 21.9 µM (inactive) | 1.87 µM (inactive) | 11.4 µM (inactive) | 0.139 µM (active) | 7.43 µM (inactive) | 3.21 µM (inactive) | 1.89 µM (inactive) | 1.72 µM (inactive) | 1.58 µM (inactive) | 5.12 µM (inactive)
COC(=O)Nc1nc2ccccc2[nH]1 [CARBENDAZIM] | 5.25 µM (inactive) | > 49.2 µM (inactive) | > 51.3 µM (inactive) | > 47.4 µM (inactive) | 7.33 µM (inactive) | 17.8 µM (inactive) | 12.9 µM (inactive) | > 61 µM (inactive) | > 43.9 µM (inactive) | > 56.1 µM (inactive) | 10.4 µM (inactive) | 5.07 µM (inactive) | 6.97 µM (inactive) | 6.34 µM (inactive) | 5.37 µM (inactive) | 3.13 µM (inactive) | 10.8 µM (inactive) | 11.4 µM (inactive) | 20.7 µM (inactive) | 3.36 µM (inactive)
Cc1cc(-c2nc3ccccc3s2)ccc1N | 9.79 µM (inactive) | 0.0302 µM (active) | 52 µM (inactive) | 4.98 µM (inactive) | 25.6 µM (inactive) | 56.4 µM (inactive) | > 100 µM (inactive) | 81.5 µM (inactive) | 64.3 µM (inactive) | 45.4 µM (inactive) | 8.67 µM (inactive) | < 0.0133 µM (active) | 32.8 µM (inactive) | 13.5 µM (inactive) | 5.98 µM (inactive) | 57.4 µM (inactive) | 61.5 µM (inactive) | 43.7 µM (inactive) | 6.92 µM (inactive) | 27.2 µM (inactive)
CC(/C=C/C(=O)NO)=C\C(C)C(=O)c1ccc(N(C)C)cc1 (centres undefined) | < 0.01 µM (active) | < 0.0177 µM (active) | 0.0309 µM (active) | 0.0409 µM (active) | < 0.0112 µM (active) | 0.217 µM (active) | < 0.01 µM (active) | 0.0614 µM (active) | < 0.01 µM (active) | 0.0231 µM (active) | 0.188 µM (active) | < 0.01 µM (active) | < 0.0122 µM (active) | < 0.0135 µM (active) | < 0.01 µM (active) | < 0.01 µM (active) | < 0.01 µM (active) | 0.029 µM (active) | 0.0498 µM (active) | < 0.01 µM (active)
CCOC(=O)C(=Cc1[nH]c2ccccc2c1-c1c[nH]c2ccccc12)C(=O)OCC | 2.84 µM (inactive) | 12.7 µM (inactive) | 13.3 µM (inactive) | 6.76 µM (inactive) | 3.13 µM (inactive) | 11.7 µM (inactive) | 29.9 µM (inactive) | 10.4 µM (inactive) | 18.7 µM (inactive) | 12.2 µM (inactive) | 14 µM (inactive) | 4.71 µM (inactive) | 16.6 µM (inactive) | 0.923 µM (active) | 11.6 µM (inactive) | 7.16 µM (inactive) | 11.3 µM (inactive) | 17.1 µM (inactive) | 13.5 µM (inactive) | 12.6 µM (inactive)
CCCC(=O)Nc1ncnc2c1ncn2C1OC2COP(=O)(O)OC2C1OC(=O)CCC (centres undefined) | > 1000 µM (inactive) | > 1000 µM (inactive) | > 100 µM (inactive) | > 100 µM (inactive) | 493 µM (inactive) | > 100 µM (inactive) | > 1000 µM (inactive) | > 100 µM (inactive) | > 100 µM (inactive) | > 100 µM (inactive) | > 100 µM (inactive) | > 100 µM (inactive) | > 100 µM (inactive) | > 100 µM (inactive) | > 100 µM (inactive) | > 100 µM (inactive) | > 100 µM (inactive) | > 100 µM (inactive) | 312 µM (inactive) | > 100 µM (inactive)
c1ccc(CSc2nc(N3CCCCC3)c3cn[nH]c3n2)cc1 | 26.6 µM (inactive) | 30.1 µM (inactive) | 23.8 µM (inactive) | 36.1 µM (inactive) | 25.3 µM (inactive) | 16.2 µM (inactive) | 17.3 µM (inactive) | 18 µM (inactive) | 20.4 µM (inactive) | 27.2 µM (inactive) | 18.8 µM (inactive) | 26.9 µM (inactive) | 27.4 µM (inactive) | 49.1 µM (inactive) | 18.7 µM (inactive) | 61.2 µM (inactive) | 23.4 µM (inactive) | 29.6 µM (inactive) | 16.6 µM (inactive) | 22.8 µM (inactive)
COc1ccc(\N=C/C=C/C(=C/COC(C)=O)OC(C)=O)cc1 | 5.48 µM (inactive) | 37.2 µM (inactive) | 31 µM (inactive) | 27.2 µM (inactive) | 39.4 µM (inactive) | 16.7 µM (inactive) | 62.8 µM (inactive) | 27.4 µM (inactive) | 31.2 µM (inactive) | 17.3 µM (inactive) | > 100 µM (inactive) | 21.7 µM (inactive) | 90.6 µM (inactive) | 68.1 µM (inactive) | > 100 µM (inactive) | 39.3 µM (inactive) | 14.4 µM (inactive) | 23.6 µM (inactive) |  | 34.5 µM (inactive)
COP1(=O)OCc2cnccc2O1 (centres undefined) | > 100 µM (inactive) | > 100 µM (inactive) | > 100 µM (inactive) | > 100 µM (inactive) | > 100 µM (inactive) | > 100 µM (inactive) | > 100 µM (inactive) | > 100 µM (inactive) | > 100 µM (inactive) | > 100 µM (inactive) | > 100 µM (inactive) | > 100 µM (inactive) | > 100 µM (inactive) | > 100 µM (inactive) | > 100 µM (inactive) | > 100 µM (inactive) | > 100 µM (inactive) | > 100 µM (inactive) | > 100 µM (inactive) | > 100 µM (inactive)
O=[N+]([O-])c1cc(Cl)ccc1S(=O)(=O)c1cc(Cl)cc2c1NCCC2 | > 100 µM (inactive) | > 100 µM (inactive) | 82.4 µM (inactive) | > 100 µM (inactive) | 53.5 µM (inactive) | > 100 µM (inactive) | 95.1 µM (inactive) | 22.4 µM (inactive) | > 100 µM (inactive) | 40.9 µM (inactive) | 39.3 µM (inactive) | 37.8 µM (inactive) | 52 µM (inactive) | 27.6 µM (inactive) | > 100 µM (inactive) | 71.4 µM (inactive) | 56.6 µM (inactive) | 66.7 µM (inactive) | 49.5 µM (inactive) | 55.1 µM (inactive)
CC1(C)[C@@H]2C[C@H]1c1cnc(-c3ccccn3)cc1[C@H]2C(O)[C@@H]1c2cc(-c3ccccn3)ncc2[C@H]2C[C@@H]1C2(C)C (some centres undefined) | 0.0893 µM (active) | 2.14 µM (inactive) | 0.126 µM (active) | 0.0618 µM (active) | 0.0309 µM (active) | 0.428 µM (active) | 6.93 µM (inactive) | 0.396 µM (active) | 0.218 µM (active) | 0.113 µM (active) | < 0.0504 µM (active) | 0.0796 µM (active) | 0.154 µM (active) | 0.0285 µM (active) | 0.993 µM (active) | 0.101 µM (active) | 0.124 µM (active) | 0.106 µM (active) | 0.0785 µM (active) | 0.0472 µM (active)
